Literature values as cited in patent US7705017B2, “Compounds for treatment of neurodegenerative diseases” (En Vivo Pharmaceuticals, Inc., priority 2004, dated 2010).

Assays:
[1] = system: Huntington's disease in a mouse model; details: orally administered
[2] = system: Histone Deacetylase-Like Protein (HDLP); details: HDLP deacetylates histones in vitro

| SMILES | motor impairment in mice [1] | inhibition of HDAC-like protein (HDLP) [2] |
| --- | --- | --- |
| O=C(CCCCCCC(=O)Nc1ccccc1)NO [SAHA, suberoylanilide hydroxamic acid] | dramatically improved the motor impairment |  |
| CC(/C=C/C(=O)NO)=C\[C@@H](C)C(=O)c1ccc(N(C)C)cc1 [TSA, trichostatin A] |  | inhibited |
